Results as given in US10238738B2, “Methods of modulating immune system responses” (priority 2014, dated 2019).

Tested on: NF-κB dependent genes in Jurkat T cells
Assay: Microarray, qRT-PCR and NF-κB subunit ELISA in Jurkat T cells
Type: cell-based, human
Settings: compared with flagellin or TNFα, FIG. 2b,c
Procedure: RNA was isolated using an RNeasy kit (Qiagen) per manufacturers' protocol. cDNA was synthesized using the iScript cDNA synthesis kit (Bio-Rad) and treated with TURBO DNase (Life Technologies). cDNA was amplified using SsoAdvanced SYBR Green (Bio-Rad) using a C1000 thermal cycler (Bio-Rad). Target genes were amplified using the following primers: […]
Relative expression was calculated using the 2^−ΔΔCT method following normalization of target gene abundance to GAPDH. Quantitative measurements of cytokines were performed using ELISA kits form R&D Systems (KC, IL-23, IFN-β) or BD Biosciences (IL-1β, IL-8, IL-6, IL-12p70, TNF-α). Nuclear extracts were prepared from Jurkat T cells and NF-κB subunit binding was determined using the TransAM® Transcription Factor ELISA (Active Motif). Microarray
Two clonal populations of Jurkat cells were stimulated for 2 hr with purified HBP-containing supernatants, or supernatants from M. catarrhalis. RNA was extracted using RNeasy (Qiagen), labeled using Illumina TotalPrep RNA Amplification kit (Ambion) and analyzed on a human HT-12 v4.0 Beadchip (Illumina). Data normalization and analysis were provided as a service by the Bioinformatics Department of the University Health Network (UHN) Micro array Centre, Toronto, ON. Data was analyzed using Genespring v11.0.1. […]

`O=P(O)(O)OC[C@@H](O)[C@H]1OC(OP(=O)(O)O)[C@@H](O)[C@@H](O)[C@@H]1O` (stereo partly drawn) [HBP, D-glycerol-D-manno-heptose-1,7-bisphosphate] was tested, and the “Kinetics of NF-κB activation and pro-inflammatory transcriptional response” value was “slower, and persisted longer”.
